Data: paper PMC3113660 (Journal of medicinal chemistry, 2010)
Like-named read-outs stand apart in the source and are kept apart here. Blank lines part the entries; values can stand above or below the molecule they belong to.

Columns and labels:
[1] = test system: Trypanosoma brucei rhodesiense (STIB900); assay: In vitro growth inhibition assay of T. brucei rhodesiense; format: cell-based; settings: for SIT, selectivity index for T. brucei rhodesiense: ratio IC50 (L6)/IC50 (T. brucei rhodesiense)
[2] = test system: Plasmodium falciparum (K1, resistant to chloroquine); assay: In vitro growth inhibition assay of P. falciparum; format: cell-based; settings: for IC50: Plasmodium falciparum, K1, read-out: antiplasmodial IC50, P. falciparum, in vitro; for fold more active against P. falciparum: relative to diimidazoline 3
[3] = test system: Leishmania donovani (MHOM/SD/62/1S-CL2D) axenic amastigotes; assay: Antileishmanial assay; format: cell-based; settings: for activity against L. donovani (in words): in vitro, axenic amastigotes
[4] = test system: T. brucei rhodesiense STIB900; format: in vivo, mice; settings: for cures: number of mice that survive and are parasite free for 60 days; for toxicity in the in vivo model (mice died due to toxicity): infected mice
[5] = In vitro cytotoxicity assay; format: cell-based, rat; settings: rat
[6] = relative to bis(N-isopropyl)amidine 32

Compound: COc1cc(C(=N)N)ccc1-n1cc(-c2cccc(C(=N)N)c2)nn1.Cl.Cl [Compound 19, 1-(4-Amidino-2-methoxyphenyl)-4-(3-amidinophenyl)-1H-1,2,3-triazole Dihydrochloride]
- SIT, selectivity index for T. brucei rhodesiense [1]: >17455
- IC50 [2]: < 58 nM
- activity against L. donovani (in words) [3]: active

Compound: Cl.Cl.N=C(N)c1ccc(-n2cc(-c3cc(C(=N)N)ccc3O)nn2)cc1 [Compound 28, 4-(5-Amidino-2-hydroxyphenyl)-1-(4-amidinophenyl)-1H-1,2,3-triazole Dihydrochloride]
- IC50 [2]: < 58 nM
- activity against L. donovani (in words) [3]: active

Compound: Cl.Cl.N=C(N)c1cccc(-c2cn(-c3cc(C(=N)N)ccc3O)nn2)c1 [Compound 10, 1-(5-Amidino-2-hydroxyphenyl)-4-(3-amidinophenyl)-1H-1,2,3-triazole Dihydrochloride]
- fold less active against T. brucei rhodesiense ([1]; relative to diamidine 1): 600 fold
- fold less potent against P. falciparum ([2]; relative to 2-methoxy analogue 4): 320 fold
- fold less potent against P. falciparum ([2]; relative to dication 1): 425 fold

Compound: Cl.Cl.N=C(N)c1ccc(-c2cn(-c3cccc(C(=N)N)c3)nn2)cc1 [Compound 31, 1-(3-Amidinophenyl)-4-(4-amidinophenyl)-1H-1,2,3-triazole Dihydrochloride]
- cures ([4]; 4 × 5 mg/kg ip): curing one out of four mice

- IC50 ([3]; Leishmania donovani, read-out: L. donovani IC50): 1800 nM
Compound: N=C(N)c1ccc(OCCCCCOc2ccc(C(=N)N)cc2)cc1 [pentamidine, 1,5-bis(4-amidinophenoxy)pentane, reference compound]

- IC50 [2]: < 58 nM
Compound: CC(C)NC(=N)c1ccc(-c2cn(-c3cccc(C(=N)NC(C)C)c3)nn2)cc1.Cl.Cl [Compound 32, 1-(3-N-Isopropylamidinophenyl)-4-(4-N-isopropylamidinophenyl)-1H-1,2,3-triazole Dihydrochloride]
- fold less active against T. brucei rhodesiense ([1]; relative to diamidine 31): 77 fold

- IC50 [2]: < 58 nM
Compound: COc1ccc(C2=NCCN2)cc1-n1cc(-c2cccc(C3=NCCN3)c2)nn1.Cl.Cl [Compound 6, 1-[5-(4,5-Dihydro-1H-imidazol-2-yl)-2-methoxyphenyl]-4-[3-(4,5-dihydro-1H-imidazol-2-yl)phenyl]-1H-1,2,3-triazole Dihydrochloride]
- fold as active against T. brucei rhodesiense ([1]; relative to 2-O-demethylated analogue 12): 13 fold
- fold more active against P. falciparum [2]: 12 fold

Compound: COc1ccc(C(=N)NC(C)C)cc1-c1cn(-c2ccc(C(=N)NC(C)C)cc2)nn1.Cl.Cl [Compound 23, 4-(5-N-Isopropylamidino-2-methoxyphenyl)-1-(4-N-isopropylamidinophenyl)-1H-1,2,3-triazole Dihydrochloride]
- IC50 [2]: < 58 nM
- toxicity in the in vivo model (mice died due to toxicity) ([4]; 4 × 5 mg/kg ip, 5 mg/kg): toxic

Compound: CC(C)NC(=N)c1ccc(-c2cn(-c3cc(C(=N)NC(C)C)ccc3O)nn2)cc1.Cl.Cl [Compound 41, 1-(5-N-Isopropylamidino-2-hydroxyphenyl)-4-(4-N-isopropylamidinophenyl)-1H-1,2,3-triazole Dihydrochloride]
- fold less active against T. brucei rhodesiense [1, 6]: 33 fold
- fold less active against P. falciparum [2, 6]: 123 fold

- IC50 [2]: < 58 nM
Compound: COc1cc(C(=N)NC(C)C)ccc1-n1cc(-c2cccc(C(=N)NC(C)C)c2)nn1.Cl.Cl [Compound 20, 1-(4-N-Isopropylamidino-2-methoxyphenyl)-4-(3-N-isopropylamidinophenyl)-1H-1,2,3-triazole Dihydrochloride]
- fold less active against T. brucei rhodesiense ([1]; relative to congener 19): 178 fold

Compound: COc1ccc(C2=NCCN2)cc1-c1cn(-c2cccc(C3=NCCN3)c2)nn1.Cl.Cl [Compound 9, 4-[5-(4,5-Dihydro-1H-imidazol-2-yl)-2-methoxyphenyl]-1-[3-(4,5-dihydro-1H-imidazol-2-yl)phenyl]-1H-1,2,3-triazole Dihydrochloride]
- SIT, selectivity index for T. brucei rhodesiense [1]: >29333
- times as active against T. brucei rhodesiense ([1]; relative to unsubstituted analogue 3): ~2350 times
- IC50 [2]: < 58 nM
- fold more active against P. falciparum [2]: 26 fold
- activity against L. donovani (in words) [3]: active
- cures ([4]; 4 × 1 mg/kg ip): no cures

Compound: Cl.Cl.N=C(N)c1cccc(-c2cn(-c3ccc(C(=N)N)cc3O)nn2)c1 [Compound 25, 1-(4-Amidino-2-hydroxyphenyl)-4-(3-amidinophenyl)-1H-1,2,3-triazole Dihydrochloride]
- fold less active against T. brucei rhodesiense ([1]; relative to diamidine 16): ~22 fold

Compound: CC(C)NC(=N)c1ccc(-c2cn(-c3ccc(C(=N)NC(C)C)cc3)nn2)cc1.Cl.Cl [Compound 47, 1,4-Bis(4-N-isopropylamidinophenyl)-1H-1,2,3-triazole Dihydrochloride]
- IC50 [2]: < 58 nM
- toxicity in the in vivo model (mice died due to toxicity) ([4]; 4 × 5 mg/kg ip): toxic

- IC50 [2]: < 58 nM
Compound: Cl.Cl.Oc1ccc(C2=NCCN2)cc1-c1cn(-c2ccc(C3=NCCN3)cc2)nn1 [Compound 30, 4-[5-(4,5-Dihydro-1H-imidazol-2-yl)-2-hydroxyphenyl]-1-[4-(4,5-dihydro-1H-imidazol-2-yl)phenyl]-1H-1,2,3-triazole Dihydrochloride]
- activity against L. donovani (in words) [3]: active

Compound: Cl.Cl.N=C(N)c1cccc(-c2cn(-c3cccc(C(=N)N)c3)nn2)c1 [Compound 1, 1,4-Bis(3-amidinophenyl)-1H-1,2,3-triazole Dihydrochloride]
- IC50 [2]: < 58 nM
- activity against L. donovani (in words) [3]: active
- cures ([4]; 4 × 5 mg/kg ip): no activity

Compound: CC(C)NC(=N)c1cccc(-c2cn(-c3cccc(C(=N)NC(C)C)c3)nn2)c1.Cl.Cl [Compound 2, 1,4-Bis(3-N-isopropylamidinophenyl)-1H-1,2,3-triazole Dihydrochloride]
- fold less active against T. brucei rhodesiense ([1]; relative to diamidine 1): ~170 fold

Compound: Cl.Cl.Oc1ccc(C2=NCCN2)cc1-n1cc(-c2cccc(C3=NCCN3)c2)nn1 [Compound 12, 1-[5-(4,5-Dihydro-1H-imidazol-2-yl)-2-hydroxyphenyl]-4-[3-(4,5-dihydro-1H-imidazol-2-yl)phenyl]-1H-1,2,3-triazole Dihydrochloride]
- fold less active against T. brucei rhodesiense ([1]; relative to diimidazoline 3): 7 fold

Compound: C[C@@H]1CC[C@H]2[C@@H](C)C(=O)O[C@@H]3O[C@@]4(C)CC[C@@H]1[C@]32OO4 [artemisinin, reference compound]
- IC50 at 70 h [5]: 450000 nM
- SIP, selectivity index for P. falciparum ([2]; ratio IC50 (L6)/IC50 (P. falciparum)): 75000

Compound: COc1ccc(C(=N)N)cc1-c1cn(-c2ccc(C(=N)N)cc2)nn1.Cl.Cl [Compound 22, 4-(5-Amidino-2-methoxyphenyl)-1-(4-amidinophenyl)-1H-1,2,3-triazole Dihydrochloride]
- SIT, selectivity index for T. brucei rhodesiense [1]: >24750
- IC50 [2]: < 58 nM
- activity against L. donovani (in words) [3]: active
- cures ([4]; 4 × 5 mg/kg ip): curing at least two out of four animals

- IC50 [2]: < 58 nM
Compound: COc1cc(C(=N)NC(C)C)ccc1-c1cn(-c2cccc(C(=N)NC(C)C)c2)nn1.Cl.Cl [Compound 38, 4-(4-N-Isopropylamidino-2-methoxyphenyl)-1-(3-N-isopropylamidinophenyl)-1H-1,2,3-triazole Dihydrochloride]
- fold less active against T. brucei rhodesiense ([1]; relative to diamidine 37): 141 fold

Compound: COc1cc([C@@H]2c3cc4c(cc3[C@H](O)[C@H]3COC(=O)[C@H]23)OCO4)cc(OC)c1OC [podophyllotoxin]
- IC50 at 70 h [5]: 20 nM

- IC50 [2]: < 58 nM
Compound: COc1ccc(C(=N)N)cc1-c1cn(-c2cccc(C(=N)N)c2)nn1.Cl.Cl [Compound 7, 4-(5-Amidino-2-methoxyphenyl)-1-(3-amidinophenyl)-1H-1,2,3-triazole Dihydrochloride]
- fold less active against T. brucei rhodesiense ([1]; relative to diamidine 1): 20 fold

- IC50 [2]: < 58 nM
Compound: CC(C)NC(=N)c1ccc(-n2cc(-c3cccc(C(=N)NC(C)C)c3)nn2)cc1.Cl.Cl [Compound 17, 1-(4-N-Isopropylamidinophenyl)-4-(3-N-isopropylamidinophenyl)-1H-1,2,3-triazole Dihydrochloride]
- fold less active against T. brucei rhodesiense ([1]; relative to diamidine 16): 67 fold

Compound: Cl.Cl.N=C(N)c1cccc(-n2cc(-c3ccc(C(=N)N)cc3O)nn2)c1 [Compound 43, 4-(4-Amidino-2-hydroxyphenyl)-1-(3-amidinophenyl)-1H-1,2,3-triazole Dihydrochloride]
- SIT, selectivity index for T. brucei rhodesiense [1]: >26250
- IC50 [2]: < 58 nM
- cures ([4]; 4 × 5 mg/kg ip): curing at least two out of four animals

Compound: COc1ccc(C(=N)N)cc1-n1cc(-c2cccc(C(=N)N)c2)nn1.Cl.Cl [Compound 4, 1-(5-Amidino-2-methoxyphenyl)-4-(3-amidinophenyl)-1H-1,2,3-triazole Dihydrochloride]
- fold as active against T. brucei rhodesiense ([1]; relative to 2-O-demethylated analogue 10): 1000 fold
- IC50 [2]: < 58 nM

Compound: COc1cc(C2=NCCN2)ccc1-c1cn(-c2cccc(C3=NCCN3)c2)nn1.Cl.Cl [Compound 39, 4-[4-(4,5-Dihydro-1H-imidazol-2-yl)-2-methoxyphenyl]-1-[3-(4,5-dihydro-1H-imidazol-2-yl)phenyl]-1H-1,2,3-triazole Dihydrochloride]
- fold less active against T. brucei rhodesiense ([1]; relative to diamidine 37): 804 fold

Compound: Nc1nc(N)nc(Nc2ccc([As]3SCC(CO)S3)cc2)n1 (stereo not drawn) [melarsoprol]
- IC50 at 70 h [5]: 7780 nM

Compound: Cl.Cl.N=C(N)c1cccc(-n2cc(-c3cc(C(=N)N)ccc3O)nn2)c1 [Compound 13, 4-(5-Amidino-2-hydroxyphenyl)-1-(3-amidinophenyl)-1H-1,2,3-triazole Dihydrochloride]
- fold less active against T. brucei rhodesiense ([1]; relative to diamidine 1): 2 fold
- IC50 [2]: < 58 nM
- activity against L. donovani (in words) [3]: active

Compound: COc1cc(C(=N)N)ccc1-c1cn(-c2ccc(C(=N)N)cc2)nn1.Cl.Cl [Compound 52, 4-(4-Amidino-2-methoxyphenyl)-1-(4-amidinophenyl)-1H-1,2,3-triazole Dihydrochloride]
- cures ([4]; 4 × 5 mg/kg ip): curing at least two out of four animals

Compound: COc1cc(C(=N)N)ccc1-c1cn(-c2cccc(C(=N)N)c2)nn1.Cl.Cl [Compound 37, 4-(4-Amidino-2-methoxyphenyl)-1-(3-amidinophenyl)-1H-1,2,3-triazole Dihydrochloride]
- IC50 [2]: < 58 nM
- cures ([4]; 4 × 1 mg/kg ip): no cures
